Like-named read-outs stand apart in the source and are kept apart here.
Tests used:
human TLR9 = human TLR9 (Homo sapiens (Human), UniProt Q9NR96); experiment: TLR9 inhibition reporter assay (HEK-Blue cells, SEAP reporter, ODN2006 stimulation);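 also: compounds tested over 0.05 nM to 50 µM, 22 h incubation, inhibition taken as SEAP signal drop from agonist plus DMSO wells toward a known inhibitor control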
human TLR7 = human TLR7 (Homo sapiens (Human), UniProt Q9NYK1); experiment: TLR7 inhibition reporter assay (HEK-Blue cells, SEAP reporter, gardiquimod stimulation); type: cell-based
human TLR8 = human TLR8 (Homo sapiens (Human), UniProt Q9NR97); experiment: TLR8 inhibition reporter assay (HEK-Blue cells, SEAP reporter, R848 stimulation);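 also: compounds tested from 0.05 nM to 50 µM, 22 h at 37 °C, SEAP measured with HEK-Blue Detection, inhibition relative to agonist plus DMSO versus a known inhibitor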
[1] = read-out: TLR9 IC50, HEK-Blue cells overexpressing human TLR9, ODN2006 5 nM
[2] = HEK-Blue cells overexpressing human TLR7, gardiquimod 7.5 μM
[3] = read-out: TLR8 IC50, HEK-Blue cells overexpressing human TLR8, R848 15.9 μM
[4] = read-out: TLR9 IC50, HEK-Blue cells, ODN2006 5 nM
[5] = HEK-Blue cells, gardiquimod 7.5 μM
[6] = read-out: TLR8 IC50, HEK-Blue cells, R848 15.9 μM

Chain of human TLR8 (Q9NR97 27-1041): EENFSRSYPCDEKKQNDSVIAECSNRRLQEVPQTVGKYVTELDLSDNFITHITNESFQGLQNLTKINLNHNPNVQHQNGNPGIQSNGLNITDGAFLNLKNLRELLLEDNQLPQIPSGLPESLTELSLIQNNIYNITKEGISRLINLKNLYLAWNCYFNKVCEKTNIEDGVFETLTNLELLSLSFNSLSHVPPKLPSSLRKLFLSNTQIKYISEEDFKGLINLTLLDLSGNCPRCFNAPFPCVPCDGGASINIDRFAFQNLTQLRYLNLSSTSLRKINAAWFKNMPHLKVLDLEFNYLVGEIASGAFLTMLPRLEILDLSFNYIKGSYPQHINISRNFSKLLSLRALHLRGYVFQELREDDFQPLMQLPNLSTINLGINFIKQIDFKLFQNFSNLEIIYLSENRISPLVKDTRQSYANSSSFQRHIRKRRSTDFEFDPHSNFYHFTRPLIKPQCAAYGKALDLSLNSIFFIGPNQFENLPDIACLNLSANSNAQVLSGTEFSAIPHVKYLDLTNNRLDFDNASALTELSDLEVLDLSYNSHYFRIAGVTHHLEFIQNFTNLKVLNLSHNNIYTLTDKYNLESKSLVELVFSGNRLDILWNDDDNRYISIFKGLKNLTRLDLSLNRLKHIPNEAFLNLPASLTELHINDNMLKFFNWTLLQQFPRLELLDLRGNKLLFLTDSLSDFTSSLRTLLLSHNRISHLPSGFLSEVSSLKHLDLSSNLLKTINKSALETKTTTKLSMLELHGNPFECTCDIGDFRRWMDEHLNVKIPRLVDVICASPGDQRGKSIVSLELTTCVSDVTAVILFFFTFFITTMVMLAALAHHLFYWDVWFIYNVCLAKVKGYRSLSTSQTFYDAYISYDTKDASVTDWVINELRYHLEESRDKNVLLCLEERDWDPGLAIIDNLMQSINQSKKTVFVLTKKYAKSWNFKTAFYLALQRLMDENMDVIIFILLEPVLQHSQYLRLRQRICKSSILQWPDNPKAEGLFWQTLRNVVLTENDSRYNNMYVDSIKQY
Chain of human TLR9 (Q9NR96 26-1032): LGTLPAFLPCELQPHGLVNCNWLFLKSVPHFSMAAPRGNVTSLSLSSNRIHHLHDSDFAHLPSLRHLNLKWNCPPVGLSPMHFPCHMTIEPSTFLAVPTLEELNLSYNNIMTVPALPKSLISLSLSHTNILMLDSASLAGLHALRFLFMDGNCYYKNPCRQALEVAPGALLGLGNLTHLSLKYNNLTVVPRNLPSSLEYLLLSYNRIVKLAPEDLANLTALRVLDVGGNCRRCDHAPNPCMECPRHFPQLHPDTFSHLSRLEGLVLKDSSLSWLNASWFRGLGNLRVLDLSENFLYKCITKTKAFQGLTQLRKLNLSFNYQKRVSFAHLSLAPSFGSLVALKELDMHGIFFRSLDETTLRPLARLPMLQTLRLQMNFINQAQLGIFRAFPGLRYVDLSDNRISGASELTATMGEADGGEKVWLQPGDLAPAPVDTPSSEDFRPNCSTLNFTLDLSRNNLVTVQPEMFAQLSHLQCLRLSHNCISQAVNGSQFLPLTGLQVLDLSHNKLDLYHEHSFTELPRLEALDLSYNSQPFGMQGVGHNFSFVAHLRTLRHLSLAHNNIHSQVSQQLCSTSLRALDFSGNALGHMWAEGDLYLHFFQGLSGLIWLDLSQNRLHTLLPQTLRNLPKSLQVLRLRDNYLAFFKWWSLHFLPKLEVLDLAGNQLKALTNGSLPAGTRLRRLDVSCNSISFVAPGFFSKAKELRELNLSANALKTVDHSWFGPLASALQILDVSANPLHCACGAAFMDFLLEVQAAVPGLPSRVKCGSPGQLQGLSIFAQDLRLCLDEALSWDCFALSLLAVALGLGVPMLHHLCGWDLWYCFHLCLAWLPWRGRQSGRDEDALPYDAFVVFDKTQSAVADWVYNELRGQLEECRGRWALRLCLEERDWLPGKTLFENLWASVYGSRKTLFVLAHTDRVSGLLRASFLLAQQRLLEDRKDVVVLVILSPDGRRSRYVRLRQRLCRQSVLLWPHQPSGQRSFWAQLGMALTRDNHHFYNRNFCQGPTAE
Chain of human TLR7 (Q9NYK1 27-1049): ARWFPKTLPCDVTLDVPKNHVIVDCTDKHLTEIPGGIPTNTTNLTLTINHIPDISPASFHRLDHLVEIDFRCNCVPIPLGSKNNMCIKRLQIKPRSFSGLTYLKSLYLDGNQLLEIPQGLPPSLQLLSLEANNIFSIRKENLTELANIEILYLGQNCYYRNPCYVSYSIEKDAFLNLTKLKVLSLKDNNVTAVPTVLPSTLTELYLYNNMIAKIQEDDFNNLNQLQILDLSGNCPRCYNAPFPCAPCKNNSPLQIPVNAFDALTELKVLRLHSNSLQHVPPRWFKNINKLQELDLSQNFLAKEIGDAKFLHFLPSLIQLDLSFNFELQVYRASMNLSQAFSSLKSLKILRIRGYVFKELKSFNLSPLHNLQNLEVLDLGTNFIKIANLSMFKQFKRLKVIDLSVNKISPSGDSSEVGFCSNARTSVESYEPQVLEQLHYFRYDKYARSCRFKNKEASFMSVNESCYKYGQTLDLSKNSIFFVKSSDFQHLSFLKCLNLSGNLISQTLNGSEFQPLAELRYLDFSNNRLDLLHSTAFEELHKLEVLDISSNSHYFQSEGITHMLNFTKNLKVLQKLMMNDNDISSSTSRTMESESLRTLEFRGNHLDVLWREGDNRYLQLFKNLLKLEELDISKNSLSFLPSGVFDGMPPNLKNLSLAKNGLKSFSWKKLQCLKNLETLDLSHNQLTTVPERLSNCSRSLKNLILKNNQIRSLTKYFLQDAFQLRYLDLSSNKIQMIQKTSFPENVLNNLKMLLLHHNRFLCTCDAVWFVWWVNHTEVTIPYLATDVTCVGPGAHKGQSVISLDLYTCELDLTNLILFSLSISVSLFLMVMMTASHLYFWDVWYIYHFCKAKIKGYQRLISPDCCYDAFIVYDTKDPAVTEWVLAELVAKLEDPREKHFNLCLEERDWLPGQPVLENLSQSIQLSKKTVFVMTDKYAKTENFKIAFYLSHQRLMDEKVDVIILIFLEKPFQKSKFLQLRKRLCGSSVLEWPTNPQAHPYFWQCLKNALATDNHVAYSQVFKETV

For `CNCCN1CCC(c2ccc3[nH]c(-c4cc(Cl)ncc4OC)c(C)c3c2)CC1` [Example 757, 2-(4-(2-(2-chloro-5-methoxypyridin-4-yl)-3-methyl-1H-indol-5-yl)piperidin-1-yl)-N-methylethan-1-amine], the IC50 (human TLR9; [1]) was 1300 nM, the IC50 (human TLR7; [2]) was 6670 nM and the IC50 (human TLR8; [3]) was 93.2 nM.

`Cc1cc(-c2[nH]c3ccc(C4CCN(CC5CCN(C(C)C)C5)CC4)cc3c2C(C)C)cc(C)n1` (stereo not drawn) [Example 465, 2-(2,6-dimethylpyridin-4-yl)-3-isopropyl-5-(1-((1-isopropylpyrrolidin-3-yl)methyl)piperidin-4-yl)-1H-indole] gave an IC50 (human TLR9; [1]) of 147 nM, an IC50 (human TLR7; [2]) of 7 nM and an IC50 (human TLR8; [3]) of 4.7 nM.

Work on `Cc1nccc(-c2[nH]c3ccc(C4CCN(Cc5ncn(C)n5)CC4)cc3c2C(C)C)c1F` [Example 732, 2-(3-fluoro-2-methylpyridin-4-yl)-3-isopropyl-5-(1-((1-methyl-1H-1,2,4-triazol-3-yl)methyl)piperidin-4-yl)-1H-indole] yielded an IC50 (human TLR9; [1]) of 10100 nM, an IC50 (human TLR7; [2]) of 22.5 nM and an IC50 (human TLR8; [3]) of 10.3 nM.

With `Cc1cc(-c2[nH]c3ccc(C4CCN(CC(C)C)CC4)cc3c2C(C)C)cc(C)n1` [Example 471, 2-(2,6-dimethylpyridin-4-yl)-5-(1-isobutylpiperidin-4-yl)-3-isopropyl-1H-indole] the IC50 (human TLR9; [1]) was 610 nM, the IC50 (human TLR7; [2]) was 2.4 nM and the IC50 (human TLR8; [3]) was 8 nM.

In the case of `Cc1cc(-c2[nH]c3ccc(C4CCN(C(=O)CN5CC[C@H](N)C5=O)CC4)cc3c2C(C)C)cc(C)n1` [Example 188, (S)-3-amino-1-(2-(4-(2-(2,6-dimethylpyridin-4-yl)-3-isopropyl-1H-indol-5-yl)piperidin-1-yl)-2-oxoethyl)pyrrolidin-2-one], the IC50 (human TLR9; [1]) is reported as 972 nM, the IC50 (human TLR7; [2]) is reported as 2.1 nM and the IC50 (human TLR8; [3]) is reported as 12.8 nM.

`Cc1cc(-c2[nH]c3ccc(C4CCN(Cc5ccon5)CC4)cc3c2C(C)C)cc(C)n1` [Example 432, 3-((4-(2-(2,6-dimethylpyridin-4-yl)-3-isopropyl-1H-indol-5-yl)piperidin-1-yl)methyl)isoxazole] showed an IC50 (human TLR9; [1]) of 646 nM, an IC50 (human TLR7; [2]) of 5.6 nM and an IC50 (human TLR8; [3]) of 8.7 nM.

With `Cc1cc(-c2[nH]c3ccc(C4CCN(C(=O)C5CC(=O)N(C)C5)CC4)cc3c2C(C)C)cc(C)n1` (single isomer, unassigned) [Example 101, 4-(4-(2-(2,6-dimethylpyridin-4-yl)-3-isopropyl-1H-indol-5-yl)piperidine-1-carbonyl)-1-methylpyrrolidin-2-one] the IC50 (human TLR9; TLR9 IC50, HEK-Blue cells overexpressing human TLR9, ODN2006 5 nM) was 36900 nM, the IC50 (human TLR7; [2]) was 9.3 nM and the IC50 (human TLR8; TLR8 IC50, HEK-Blue cells overexpressing human TLR8, R848 15.9 μM) was 52.4 nM.

In the case of `COCCN1CCC(c2ccc3[nH]c(-c4cc(C)nc(C)c4)c(C(C)C)c3c2)CC1` [Example 325, 2-(2,6-dimethylpyridin-4-yl)-3-isopropyl-5-(1-(2-methoxyethyl)piperidin-4-yl)-1H-indole], the IC50 (human TLR9; [1]) is reported as 343 nM, the IC50 (human TLR7; [2]) is reported as 3.1 nM and the IC50 (human TLR8; [3]) is reported as 3.8 nM.

For `CC(=O)Nc1ccc(S(=O)(=O)N2CCC(c3ccc4[nH]c(-c5ccnc(C)c5)c(C(C)C)c4c3)CC2)cc1` [Example 552, N-(4-((4-(3-isopropyl-2-(2-methylpyridin-4-yl)-1H-indol-5-yl)piperidin-1-yl)sulfonyl)phenyl)acetamide], the IC50 (human TLR9; [1]) was greater than 50000 nM, the IC50 (human TLR7; [2]) was 130 nM and the IC50 (human TLR8; [3]) was 111 nM.

`CC(C)c1c(-c2cc(C3CC3)ncc2F)[nH]c2ccc(C3CCN(CC(=O)N(C)C)CC3)cc12` [Example 515, 2-(4-(2-(2-cyclopropyl-5-fluoropyridin-4-yl)-3-isopropyl-1H-indol-5-yl)piperidin-1-yl)-N,N-dimethylacetamide] was tested, and the IC50 (human TLR9; [1]) was 2220 nM, the IC50 (human TLR7; [2]) was 19.8 nM and the IC50 (human TLR8; [3]) was 136 nM.

`CNCC(=O)N1CCC(c2ccc3[nH]c(-c4cc(C5CC5)ncc4F)c(C(C)C)c3c2)CC1` [Example 518, 1-(4-(2-(2-cyclopropyl-5-fluoropyridin-4-yl)-3-isopropyl-1H-indol-5-yl)piperidin-1-yl)-2-(methylamino)ethan-1-one] was tested, and the IC50 (human TLR9; [1]) was 1610 nM, the IC50 (human TLR7; [2]) was 15.1 nM and the IC50 (human TLR8; [3]) was 257 nM.

`Cc1cc(-c2[nH]c3ccc(C4CCN(C(=O)C5CC5)CC4)cc3c2C(C)C)ccn1` [Example 606, cyclopropyl(4-(3-isopropyl-2-(2-methylpyridin-4-yl)-1H-indol-5-yl)piperidin-1-yl)methanone] gave an IC50 (human TLR9; [1]) of 40900 nM, an IC50 (human TLR7; [2]) of 56.5 nM and an IC50 (human TLR8; [3]) of 186 nM.

`CNCC(=O)N1CCC(c2ccc3[nH]c(-c4ccnc(C)c4)c(C(C)C)c3c2)CC1` [Example 510, 1-(4-(3-isopropyl-2-(2-methylpyridin-4-yl)-1H-indol-5-yl)piperidin-1-yl)-2-(methylamino)ethan-1-one] was tested, and the IC50 (human TLR9; [1]) was 695 nM, the IC50 (human TLR7; [2]) was 8.8 nM and the IC50 (human TLR8; [3]) was 8.6 nM.

`Cc1cc(-c2[nH]c3ccc(C4CCN(CC(=O)N(CCO)Cc5ccccc5)CC4)cc3c2C(C)C)cc(C)n1` [Example 293, N-benzyl-2-(4-(2-(2,6-dimethylpyridin-4-yl)-3-isopropyl-1H-indol-5-yl)piperidin-1-yl)-N-(2-hydroxyethyl)acetamide] was tested, and the IC50 (human TLR9; [1]) was 711 nM, the IC50 (human TLR7; [2]) was 22.8 nM and the IC50 (human TLR8; [3]) was 72.2 nM.

For `CCc1c(-c2ccncc2)[nH]c2ccc(C3CCN(Cc4cnc(Nc5ccccn5)s4)CC3)cc12` [Example 822, 5-((4-(3-ethyl-2-(pyridin-4-yl)-1H-indol-5-yl)piperidin-1-yl)methyl)-N-(pyridin-2-yl)thiazol-2-amine], the IC50 (human TLR9; [4]) was 1090 nM, the IC50 (human TLR7; [5]) was 841 nM and the IC50 (human TLR8; [6]) was 12900 nM.

With `Cc1cc(-c2[nH]c3ccc(C4CCN(C(=O)C(C)(C)N)CC4)cc3c2C(C)C)cc(C)n1` [Example 194, 2-amino-1-(4-(2-(2,6-dimethylpyridin-4-yl)-3-isopropyl-1H-indol-5-yl)piperidin-1-yl)-2-methylpropan-1-one] the IC50 (human TLR9; [1]) was 213 nM, the IC50 (human TLR7; [2]) was 0.6 nM and the IC50 (human TLR8; [3]) was 9.3 nM.

For `Cc1cc(-c2[nH]c3ccc(C4CCNCC4)cc3c2C(C)C)c(C)cn1` [Example 31, 2-(2,5-dimethylpyridin-4-yl)-3-isopropyl-5-(piperidin-4-yl)-1H-indole], the IC50 (human TLR9; [1]) was 963 nM, the IC50 (human TLR7; [2]) was 2.6 nM and the IC50 (human TLR8; [3]) was 1 nM.

With `Cc1cc(-c2[nH]c3ccc(C4CCN(C(=O)CNC5CCCOC5)CC4)cc3c2C(C)C)cc(C)n1` (stereo not drawn) [Example 385, 1-(4-(2-(2,6-dimethylpyridin-4-yl)-3-isopropyl-1H-indol-5-yl)piperidin-1-yl)-2-((tetrahydro-2H-pyran-3-yl)amino)ethan-1-one] the IC50 (human TLR9; [1]) was 539 nM, the IC50 (human TLR7; [2]) was 3.2 nM and the IC50 (human TLR8; [3]) was 22 nM.

Compound `Cc1cc(-c2[nH]c3ccc(C4CCN(C)CC4)cc3c2CC(F)F)cc(C)n1` [Example 539, 3-(2,2-difluoroethyl)-2-(2,6-dimethylpyridin-4-yl)-5-(1-methylpiperidin-4-yl)-1H-indole] has an IC50 (human TLR9; [1]) of 4820 nM, an IC50 (human TLR7; [2]) of 23.3 nM and an IC50 (human TLR8; [3]) of 81.2 nM.

`Cc1cc(-c2[nH]c3ccc(C4CCN(C(=O)[C@@H]5CC(F)(F)CN5)CC4)cc3c2C(C)C)cc(C)n1` [Example 189, (S)-(4,4-difluoropyrrolidin-2-yl)(4-(2-(2,6-dimethylpyridin-4-yl)-3-isopropyl-1H-indol-5-yl)piperidin-1-yl) methanone] showed an IC50 (human TLR9; [1]) of 15100 nM, an IC50 (human TLR7; [2]) of 7 nM and an IC50 (human TLR8; [3]) of 74.3 nM.

For `COc1ncc(CN(C)CC(=O)N2CCC(c3ccc4[nH]c(-c5cc(C)nc(C)c5)c(C(C)C)c4c3)CC2)cn1` [Example 418, 1-(4-(2-(2,6-dimethylpyridin-4-yl)-3-isopropyl-1H-indol-5-yl)piperidin-1-yl)-2-(((2-methoxypyrimidin-5-yl)methyl)(methyl)amino)ethan-1-one], the IC50 (human TLR9; [1]) was 2050 nM, the IC50 (human TLR7; [2]) was 3 nM and the IC50 (human TLR8; [3]) was 30.6 nM.

`Cc1cc(-c2[nH]c3ccc(C4CCN(C(=O)CC(=O)Nc5nccs5)CC4)cc3c2C(C)C)cc(C)n1` [Example 142, 3-(4-(2-(2,6-dimethylpyridin-4-yl)-3-isopropyl-1H-indol-5-yl)piperidin-1-yl)-3-oxo-N-(thiazol-2-yl)propanamide] gave an IC50 (human TLR9; [1]) greater than 50000 nM, an IC50 (human TLR7; [2]) of 18.2 nM and an IC50 (human TLR8; [3]) of 96.3 nM.

`Cc1cc(-c2[nH]c3ccc(C4CCN(C(=O)c5ccon5)CC4)cc3c2C(C)C)cc(C)n1` [Example 203, (4-(2-(2,6-dimethylpyridin-4-yl)-3-isopropyl-1H-indol-5-yl)piperidin-1-yl)(isoxazol-3-yl)methanone] showed an IC50 (human TLR9; [1]) of 3180 nM, an IC50 (human TLR7; [2]) of 2 nM and an IC50 (human TLR8; [3]) of 113 nM.

For `Cc1c(-c2ccncc2)[nH]c2ccc(C3CCN(C4CCN(C(C)C)CC4)CC3)cc12` [Example 843, 5-(1′-isopropyl-[1,4′-bipiperidin]-4-yl)-3-methyl-2-(pyridin-4-yl)-1H-indole], the IC50 (human TLR9; [4]) was 38 nM, the IC50 (human TLR7; [5]) was 292 nM and the IC50 (human TLR8; [6]) was 28.4 nM.

With `CC(=O)N1CCC(N2CCC(c3ccc4[nH]c(-c5ccnc(C)c5)c(C(C)C)c4c3)CC2)CC1` [Example 827, 1-(4-(3-isopropyl-2-(2-methylpyridin-4-yl)-1H-indol-5-yl)-[1,4′-bipiperidin]-1′-yl)ethan-1-one] the IC50 (human TLR9; [4]) was 753 nM, the IC50 (human TLR7; [5]) was 12.7 nM and the IC50 (human TLR8; [6]) was 5.2 nM.

With `Cc1cc(-c2[nH]c3ccc(C4CCN(C(=O)CNC5CCC5)CC4)cc3c2C(C)C)cc(C)n1` [Example 334, 2-(cyclobutylamino)-1-(4-(2-(2,6-dimethylpyridin-4-yl)-3-isopropyl-1H-indol-5-yl)piperidin-1-yl)ethan-1-one] the IC50 (human TLR9; [1]) was 474 nM, the IC50 (human TLR7; [2]) was 2.3 nM and the IC50 (human TLR8; [3]) was 7.6 nM.

`Cc1cc(-c2[nH]c3ccc(C4CCN(CC(=O)N(C)C)CC4)cc3c2C(C)C)c(Cl)c(C)n1` [Example 644, 2-(4-(2-(3-chloro-2,6-dimethylpyridin-4-yl)-3-isopropyl-1H-indol-5-yl)piperidin-1-yl)-N,N-dimethylacetamide] showed an IC50 (human TLR9; [1]) of 2300 nM, an IC50 (human TLR7; [2]) of 7.7 nM and an IC50 (human TLR8; [3]) of 6 nM.
